According to patent publication US20230085307A1, “PYRIDAZINONE COMPOUND AND HERBICIDE” (NISSAN CHEMICAL CORPORATION, priority 2019, published 2023):

test system: blackgrass; assay: Test Example 4: herbicidal effect by soil treatment (Table 19, symbol J); type: in vivo, blackgrass (Alopecurus myosuroides); conditions: amount of applied herbicide 320 g/ha
Summary of the method: (§1)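 Herbicidal effect was rated 3 weeks after treatment, using the scoring criteria of an earlier test. The compound, formulated as an emulsion and diluted in water to a set herbicide amount, had been sprayed uniformly on soil over freshly sown seeds. Growth took place in a greenhouse at 25° C. to 30° C.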

Row | SMILES | J: blackgrass, herbicidal effect rating
1 | CCCC(=O)Oc1c(C)nn(C)c(=O)c1-c1c(-c2ccc(Br)cc2)sc2ccc(F)cc12 [2-206] | 0 (Herbicidal rate of 5% or less (almost no effect))

test system: lambsquarters; assay: Test Example 4: herbicidal effect by soil treatment (Table 19, symbol O); type: in vivo, lambsquarters (Chenopodium album); conditions: amount of applied herbicide 320 g/ha
Summary of the method: as §1

Row | SMILES | O: lambsquarters, herbicidal effect rating
2 | CCCC(=O)Oc1c(C)nn(C)c(=O)c1-c1c(-c2ccc(Br)cc2)sc2ccc(F)cc12 [2-206] | 4 (Herbicidal rate of 70% or more and less than 90%)

test system: velvetleaf; assay: Test Example 5: herbicidal effect by foliage application, plastic box (Table 20, symbol M); type: in vivo, velvetleaf (Abutilon theophrasti); conditions: foliage application, 320 g/ha, evaluated three weeks after application
Summary of the method: (§2)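 Foliar spray test: emulsion formulation diluted in water to a set application rate, sprayed onto 14-day-old plants raised in diluvial soil at 25° C to 30° C under glass. Both herbicidal effect and crop effect rated visually three weeks later.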

Row | SMILES | herbicidal effect on M: velvetleaf (criteria 0-5)
3 | CCCC(=O)Oc1c(C)nn(C)c(=O)c1-c1c(-c2ccc(Br)cc2)sc2ccc(F)cc12 [2-206] | 5 (Herbicidal rate of 90% or more (almost completely withered))

test system: late watergrass; assay: Test Example 2: herbicidal activity, application during weed generation under submerged conditions (Table 17, symbol A); type: in vivo, late watergrass (Echinochloa oryzicola); conditions: AAH 320 g/ha; application during weed generation, submerged conditions
Summary of the method: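 Wagner pot, alluvial soil, 4 cm flood; mixed sowing of all species; greenhouse 25° C.–30° C. Emulsifiable formulation, water-diluted to predetermined dose, applied to paddy water at 1–2 leaf stage. Effect rated at 3 wk using the earlier test's scoring criteria.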

Row | SMILES | herbicidal effect rating, A: late watergrass
4 | CCCC(=O)Oc1c(C)nn(C)c(=O)c1-c1c(-c2ccc(Br)cc2)sc2ccc(F)cc12 [2-206] | 4 (Herbicidal rate of 70% or more and less than 90%)

test system: barnyard grass; assay: Test Example 3: herbicidal effect by foliage application, Wagner pot (Table 18, symbol H); type: in vivo, barnyard grass (Echinochloa crus-galli); conditions: amount of applied herbicide 320 g/ha
Summary of the method: (§3)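 Plants were sown in alluvial soil held under 0.1–0.5 cm standing water and grown 14 days in a greenhouse at 25–30 °C. An emulsifiable formulation, water-diluted to the set dose, was then sprayed onto the foliage, and effects were scored three weeks later using previously defined criteria.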

Row | SMILES | herbicidal effect on H: barnyard grass
5 | CCCC(=O)Oc1c(C)nn(C)c(=O)c1-c1c(-c2ccc(Br)cc2)sc2ccc(F)cc12 [2-206] | 5 (Herbicidal rate of 90% or more (almost completely withered))

test system: Chinese sprangletop; assay: Test Example 3: herbicidal effect by foliage application, Wagner pot (Table 18, symbol D); type: in vivo, chinese sprangletop (Leptochloa chinensis); conditions: amount of applied herbicide 320 g/ha
Summary of the method: as §3

Row | SMILES | herbicidal effect on D: Chinese sprangletop
6 | CCCC(=O)Oc1c(C)nn(C)c(=O)c1-c1c(-c2ccc(Br)cc2)sc2ccc(F)cc12 [2-206] | 4 (Herbicidal rate of 70% or more and less than 90%)

test system: redroot pigweed; assay: Test Example 5: herbicidal effect by foliage application, plastic box (Table 20, symbol N); type: in vivo, redroot pigweed (Amaranthus retroflexus); conditions: foliage application, 320 g/ha, evaluated three weeks after application
Summary of the method: as §2

Row | SMILES | herbicidal effect on N: redroot pigweed (criteria 0-5)
7 | CCCC(=O)Oc1c(C)nn(C)c(=O)c1-c1c(-c2ccc(Br)cc2)sc2ccc(F)cc12 [2-206] | 5 (Herbicidal rate of 90% or more (almost completely withered))

test system: Italian ryegrass; assay: Test Example 4: herbicidal effect by soil treatment (Table 19, symbol K); type: in vivo, Italian ryegrass (Lolium multiflorum); conditions: amount of applied herbicide 320 g/ha
Summary of the method: as §1

Row | SMILES | K: Italian ryegrass, herbicidal effect rating
8 | CCCC(=O)Oc1c(C)nn(C)c(=O)c1-c1c(-c2ccc(Br)cc2)sc2ccc(F)cc12 [2-206] | 5 (Herbicidal rate of 90% or more (almost completely withered))

test system: persian speedwell; assay: Test Example 4: herbicidal effect by soil treatment (Table 19, symbol R); type: in vivo, Persian speedwell (Veronica persica); conditions: amount of applied herbicide 320 g/ha
Summary of the method: as §1

Row | SMILES | R: persian speedwell, herbicidal effect rating
9 | CCCC(=O)Oc1c(C)nn(C)c(=O)c1-c1c(-c2ccc(Br)cc2)sc2ccc(F)cc12 [2-206] | 5 (Herbicidal rate of 90% or more (almost completely withered))

test system: southern crabgrass; assay: Test Example 4: herbicidal effect by soil treatment (Table 19, symbol F); type: in vivo, southern crabgrass (Digitaria ciliaris); conditions: amount of applied herbicide 320 g/ha
Summary of the method: as §1

Row | SMILES | F: southern crabgrass, herbicidal effect rating
10 | CCCC(=O)Oc1c(C)nn(C)c(=O)c1-c1c(-c2ccc(Br)cc2)sc2ccc(F)cc12 [2-206] | 1 (Herbicidal rate of 5% or more and less than 20%)

test system: lambsquarters; assay: Test Example 5: herbicidal effect by foliage application, plastic box (Table 20, symbol O); type: in vivo, lambsquarters (Chenopodium album); conditions: foliage application, 320 g/ha, evaluated three weeks after application
Summary of the method: as §2

Row | SMILES | herbicidal effect on O: lambsquarters (criteria 0-5)
11 | CCCC(=O)Oc1c(C)nn(C)c(=O)c1-c1c(-c2ccc(Br)cc2)sc2ccc(F)cc12 [2-206] | 5 (Herbicidal rate of 90% or more (almost completely withered))

test system: blackgrass; assay: Test Example 5: herbicidal effect by foliage application, plastic box (Table 20, symbol J); type: in vivo, blackgrass (Alopecurus myosuroides); conditions: foliage application, 320 g/ha, evaluated three weeks after application
Summary of the method: as §2

Row | SMILES | herbicidal effect on J: blackgrass (criteria 0-5)
12 | CCCC(=O)Oc1c(C)nn(C)c(=O)c1-c1c(-c2ccc(Br)cc2)sc2ccc(F)cc12 [2-206] | 4 (Herbicidal rate of 70% or more and less than 90%)

test system: velvetleaf; assay: Test Example 4: herbicidal effect by soil treatment (Table 19, symbol M); type: in vivo, velvetleaf (Abutilon theophrasti); conditions: amount of applied herbicide 320 g/ha
Summary of the method: as §1

Row | SMILES | M: velvetleaf, herbicidal effect rating
13 | CCCC(=O)Oc1c(C)nn(C)c(=O)c1-c1c(-c2ccc(Br)cc2)sc2ccc(F)cc12 [2-206] | 2 (Herbicidal rate of 20% or more and less than 40%)

test system: windgrass; assay: Test Example 4: herbicidal effect by soil treatment (Table 19, symbol L); type: in vivo, windgrass (Apera spica-venti); conditions: amount of applied herbicide 320 g/ha
Summary of the method: as §1

Row | SMILES | L: windgrass, herbicidal effect rating
14 | CCCC(=O)Oc1c(C)nn(C)c(=O)c1-c1c(-c2ccc(Br)cc2)sc2ccc(F)cc12 [2-206] | 2 (Herbicidal rate of 20% or more and less than 40%)

test system: late watergrass; assay: Test Example 1: herbicidal activity, application before weed generation under submerged conditions (Table 16, symbol A); type: in vivo, late watergrass (Echinochloa oryzicola); conditions: 320 g/ha applied herbicide
Summary of the method: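 Alluvial soil was flooded to 4 cm depth, weed seeds were sown mixed and 2.5-leaf rice seedlings were transplanted. On sowing day, the compound's emulsion, diluted in water to a set dose, was applied to the water surface. Plants grew at 25–30 °C and were scored 0–5 after three weeks.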

Row | SMILES | Herbicidal effect on A: late watergrass (grade 0-5)
15 | CCCC(=O)Oc1c(C)nn(C)c(=O)c1-c1c(-c2ccc(Br)cc2)sc2ccc(F)cc12 [2-206] | 5 (Herbicidal rate of 90% or more (almost completely withered))

test system: Italian ryegrass; assay: Test Example 5: herbicidal effect by foliage application, plastic box (Table 20, symbol K); type: in vivo, Italian ryegrass (Lolium multiflorum); conditions: foliage application, 320 g/ha, evaluated three weeks after application
Summary of the method: as §2

Row | SMILES | herbicidal effect on K: Italian ryegrass (criteria 0-5)
16 | CCCC(=O)Oc1c(C)nn(C)c(=O)c1-c1c(-c2ccc(Br)cc2)sc2ccc(F)cc12 [2-206] | 5 (Herbicidal rate of 90% or more (almost completely withered))
